Measurements taken from article PMC9863764, “Roles of Human Liver Cytochrome P450 Enzymes in Tenatoprazole Metabolism” (Pharmaceutics, 2022).
“And” between values parts separate entries of the source, which are not always exact repeats. Equal entries are not always repeated.

Legend:
Format in all cases: in vitro ADME
[1] = molecular target: T1, CYP1A2 (Homo sapiens, UniProt P05177); test: Tenatoprazole oxidation by recombinant CYP1A2; settings: substrate tenatoprazole 0.10 mM, 0.20 μM CYP1A2; no apparent formation
T1 construct: made in house; host or cells: Escherichia coli (membrane fractions)
T1 sequence (P05177 1-516): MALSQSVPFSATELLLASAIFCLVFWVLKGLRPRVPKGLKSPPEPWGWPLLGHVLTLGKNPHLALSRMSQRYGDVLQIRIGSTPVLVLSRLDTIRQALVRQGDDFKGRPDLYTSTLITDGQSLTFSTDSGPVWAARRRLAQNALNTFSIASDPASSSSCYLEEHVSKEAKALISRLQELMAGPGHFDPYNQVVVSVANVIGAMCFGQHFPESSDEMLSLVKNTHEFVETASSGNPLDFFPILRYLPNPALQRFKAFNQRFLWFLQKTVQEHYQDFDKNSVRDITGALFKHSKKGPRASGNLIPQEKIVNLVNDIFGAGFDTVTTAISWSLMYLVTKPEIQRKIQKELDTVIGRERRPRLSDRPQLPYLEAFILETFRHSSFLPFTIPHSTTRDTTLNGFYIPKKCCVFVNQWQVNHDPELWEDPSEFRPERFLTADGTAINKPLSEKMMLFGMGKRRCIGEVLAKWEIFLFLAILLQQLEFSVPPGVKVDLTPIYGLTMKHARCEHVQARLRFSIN
Procedure: (§1) Pooled liver microsomes from human samples were obtained from ThermoFisher Scientific (Waltham, MA, USA). Recombinant human P450s were heterologously expressed in Escherichia coli with a pCW vector containing human P450 cDNA (CYP 3A4, 2C9, 2C19, 1A2, 1B1, 2E1, 2D6, and 2A6) and rat NADPH-P450 reductase (CPR). Membrane fractions expressing both P450 and CPR of E. coli were prepared as described previously and were used for the catalytic activity assays.
(§2) The reaction mixture included 0.20 μM P450, 0.40 μM CPR, and tenatoprazole (0.10 mM) in 0.25 mL of 0.10 M potassium phosphate buffer (pH 7.4). The reaction was started by adding NGS and the incubation was continued for the indicated time at 37 °C. Incubation was then stopped by adding ice-chilled ethyl acetate (0.50 mL) and omeprazole (IS) was added to a final concentration of 20 μM. The mixtures were vortexed for 2 min, centrifuged at 1000× g for 20 min, and then the organic layer was taken for drying under nitrogen gas stream. The residues were dissolved in 180 μL of HPLC mobile phase and 30 μL was injected onto a Gemini C18 column (4.6 × 150 mm, 5 μm; Phenomenex, Torrance, CA, USA). The products formed were analyzed by HPLC at A302. The HPLC profile of the authentic chemicals (i.e., tenatoprazole, tenatoprazole sulfide, and their metabolites) were used to identify the major metabolites of tenatoprazole and tenatoprazole sulfide produced by the recombinant P450s.
(§3) Figure S6. HPLC analyses of the products derived from the oxidation of tenatoprazole catalyzed by recombinant human P450s. The reaction mixture included 0.20 μM P450, 0.40 μM CPR, and 0.10 mM tenatoprazole in 0.25 mL of potassium phosphate buffer (0.10 M, pH 7.4). The reaction was started by adding an NGS at 37 °C for 60 min. (A) CYP1A2; (B) CYP1B1; (C) CYP2A6; (D) CYP2C9; (E) CYP2D6; (F) CYP2E1. The arrows with solid and broken lines indicate the retention times of 5’-OH tenatoprazole (6.6 min) and 5’-OH tenatoprazole sulfide (8.4 min), respectively.
(§4) (1 picture or pasted object on this page, not shown here)

[2] = molecular target: T2, human CYP2C19 (Homo sapiens, UniProt P33261); test: Steady-state kinetics of tenatoprazole oxidation by recombinant CYP2C19
T2 construct: made in house; host or cells: Escherichia coli (membrane fractions)
T2 sequence (P33261 whole entry): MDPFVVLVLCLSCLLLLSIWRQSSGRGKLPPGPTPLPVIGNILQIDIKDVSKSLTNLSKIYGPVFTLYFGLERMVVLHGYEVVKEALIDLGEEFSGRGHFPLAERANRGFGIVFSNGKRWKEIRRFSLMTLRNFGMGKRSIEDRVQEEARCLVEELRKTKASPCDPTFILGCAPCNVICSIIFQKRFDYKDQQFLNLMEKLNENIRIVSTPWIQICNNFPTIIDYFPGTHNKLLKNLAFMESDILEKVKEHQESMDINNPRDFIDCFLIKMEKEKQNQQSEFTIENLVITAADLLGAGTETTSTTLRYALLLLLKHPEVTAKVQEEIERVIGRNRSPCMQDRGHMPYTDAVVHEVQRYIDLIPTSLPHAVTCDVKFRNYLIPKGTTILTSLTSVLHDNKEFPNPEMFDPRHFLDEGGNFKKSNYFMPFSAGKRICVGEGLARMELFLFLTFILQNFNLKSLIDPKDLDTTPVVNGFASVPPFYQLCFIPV
Procedure: Pooled liver microsomes from human samples were obtained from ThermoFisher Scientific (Waltham, MA, USA). […] Membrane fractions expressing both P450 and CPR of E. coli were prepared as described previously and were used for the catalytic activity assays. […] The reaction was started by adding NGS and the incubation was continued for the indicated time at 37 °C. Incubation was then stopped by adding ice-chilled ethyl acetate (0.50 mL) and omeprazole (IS) was added to a final concentration of 20 μM. […] Phenomenex, Torrance, CA, USA). The products formed were analyzed by HPLC at […]. […] The kinetic parameters (kcat and Km) were determined by using a Michaelis-Menten nonlinear regression analysis with GraphPad Prism (GraphPad Software, San Diego, CA, USA).

[3] = molecular target: T3, CYP2C9 (Homo sapiens, UniProt P11712); test: Tenatoprazole oxidation by recombinant CYP2C9; settings: substrate tenatoprazole 0.10 mM, 0.20 μM CYP2C9
T3 construct: made in house; host or cells: Escherichia coli (membrane fractions)
T3 sequence (P11712 whole entry): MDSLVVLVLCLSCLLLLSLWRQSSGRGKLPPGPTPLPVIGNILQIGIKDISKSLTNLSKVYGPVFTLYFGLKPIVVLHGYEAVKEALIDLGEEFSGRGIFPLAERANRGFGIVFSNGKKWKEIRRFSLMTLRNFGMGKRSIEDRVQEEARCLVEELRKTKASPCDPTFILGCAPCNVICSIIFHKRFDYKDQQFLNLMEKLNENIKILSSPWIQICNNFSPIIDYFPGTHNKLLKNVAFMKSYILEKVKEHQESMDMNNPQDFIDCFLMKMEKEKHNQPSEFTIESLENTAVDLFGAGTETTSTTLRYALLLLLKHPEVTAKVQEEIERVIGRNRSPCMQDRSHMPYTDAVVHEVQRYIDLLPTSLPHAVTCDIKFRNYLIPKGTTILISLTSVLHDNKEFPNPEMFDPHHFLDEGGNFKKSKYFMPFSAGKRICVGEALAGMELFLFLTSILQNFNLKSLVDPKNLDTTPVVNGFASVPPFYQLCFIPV
Procedure: as §1
as §2, with “The HPLC profile of the authentic chemicals (i.e., tenatoprazole, tenatoprazole sulfide, and their metabolites) were used to identify the major metabolites of tenatoprazole and tenatoprazole sulfide produced by the recombinant P450s.” left out

[4] = molecular target: T4, CYP2D6 (Homo sapiens, UniProt P10635); test: Tenatoprazole oxidation by recombinant CYP2D6; settings: substrate tenatoprazole 0.10 mM, 0.20 μM CYP2D6
T4 construct: made in house; host or cells: Escherichia coli (membrane fractions)
T4 sequence (P10635 whole entry): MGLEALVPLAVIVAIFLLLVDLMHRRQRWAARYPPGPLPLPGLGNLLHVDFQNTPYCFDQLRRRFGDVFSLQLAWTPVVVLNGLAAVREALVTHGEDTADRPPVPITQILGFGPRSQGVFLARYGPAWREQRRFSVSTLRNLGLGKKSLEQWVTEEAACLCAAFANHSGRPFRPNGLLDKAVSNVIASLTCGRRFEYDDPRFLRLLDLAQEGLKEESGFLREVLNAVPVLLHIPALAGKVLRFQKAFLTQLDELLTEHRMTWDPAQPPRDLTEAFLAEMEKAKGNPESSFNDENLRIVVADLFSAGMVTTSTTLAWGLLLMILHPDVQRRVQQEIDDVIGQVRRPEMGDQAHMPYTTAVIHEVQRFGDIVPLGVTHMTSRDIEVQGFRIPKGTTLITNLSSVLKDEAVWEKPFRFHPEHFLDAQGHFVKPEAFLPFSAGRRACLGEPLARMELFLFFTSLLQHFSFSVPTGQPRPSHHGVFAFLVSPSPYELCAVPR
Procedure: as §1
as §2, with “The HPLC profile of the authentic chemicals (i.e., tenatoprazole, tenatoprazole sulfide, and their metabolites) were used to identify the major metabolites of tenatoprazole and tenatoprazole sulfide produced by the recombinant P450s.” left out

[5] = molecular target: T5, CYP2A6 (Homo sapiens, UniProt P11509); test: Tenatoprazole oxidation by recombinant CYP2A6; settings: substrate tenatoprazole 0.10 mM, 0.20 μM CYP2A6; no apparent formation
T5 construct: made in house; host or cells: Escherichia coli (membrane fractions)
T5 sequence (P11509 1-494): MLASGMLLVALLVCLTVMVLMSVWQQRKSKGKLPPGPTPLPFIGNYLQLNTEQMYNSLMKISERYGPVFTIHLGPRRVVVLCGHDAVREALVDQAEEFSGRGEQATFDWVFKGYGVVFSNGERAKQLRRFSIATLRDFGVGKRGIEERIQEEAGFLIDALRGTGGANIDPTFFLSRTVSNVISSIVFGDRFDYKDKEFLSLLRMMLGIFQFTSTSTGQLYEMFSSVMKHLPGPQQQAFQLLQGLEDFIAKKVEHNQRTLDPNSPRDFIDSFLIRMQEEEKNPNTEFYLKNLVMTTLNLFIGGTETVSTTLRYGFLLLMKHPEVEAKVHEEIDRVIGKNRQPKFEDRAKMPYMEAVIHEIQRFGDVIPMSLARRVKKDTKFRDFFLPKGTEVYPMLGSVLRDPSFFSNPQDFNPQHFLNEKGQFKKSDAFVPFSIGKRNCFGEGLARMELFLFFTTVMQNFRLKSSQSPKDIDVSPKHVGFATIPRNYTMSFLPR
Procedure: as §1, §2, §3, §4

Structure (SMILES) | formation rate of metabolite [1] | fold higher catalytic efficiency of CYP2C19 than CYP3A4 ([2]; 5′-OH tenatoprazole formation from tenatoprazole) [fold] | kcat of product formation ([2]; substrate tenatoprazole (1–500 μM), recombinant CYP2C19 0.20 μM, 37 °C, 5 min, label = product formed) | formation rate of metabolite [3] [min⁻¹] | formation rate of metabolite [4] [min⁻¹] | formation rate of metabolite [5]
COc1ccc2[nH]c([S+]([O-])Cc3ncc(CO)c(OC)c3C)nc2n1 (centres unmarked) [5′-OH tenatoprazole, 5′-hydroxy tenatoprazole] | < 0.05 nmol product/min/nmol P450 | 63 | 0.0667 s⁻¹ and 0.0667 ± 0.0033 s⁻¹ | 0.1 | 0.1 | < 0.05 nmol product/min/nmol P450
COc1ccc2[nH]c(S(=O)(=O)Cc3ncc(C)c(OC)c3C)nc2n1 [tenatoprazole sulfone] | < 0.05 nmol product/min/nmol P450 | – | – | – | – | < 0.05 nmol product/min/nmol P450
